Results: PubChem BioAssay (NCI)
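A five-concentration, 48-hour dose response in 96-well plates underlies each endpoint, interpolated linearly between surrounding concentrations. The concentration for 50% growth inhibition is given as GI50. Definition used: TGI = concentration required for complete inhibition of growth.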

Experiments:
Assay in all cases: NCI tumour cell line growth inhibition, 48 h
SK-MEL-5 melanoma = tested on: SK-MEL-5 melanoma
NCI-H522 lung = tested on: NCI-H522 lung
U251 CNS = tested on: U251 CNS
SR leukemia = tested on: SR leukemia
SF-268 CNS = tested on: SF-268 CNS
NCI-H23 lung = tested on: NCI-H23 lung
IGROV1 ovarian = tested on: IGROV1 ovarian
MDA-MB-231 breast = tested on: MDA-MB-231 breast
UACC-62 melanoma = tested on: UACC-62 melanoma
COLO 205 colon = tested on: COLO 205 colon
NCI-H226 lung = tested on: NCI-H226 lung
A549 NSCLC = tested on: A549 NSCLC
OVCAR-4 ovarian = tested on: OVCAR-4 ovarian
TK-10 renal = tested on: TK-10 renal
A498 renal = tested on: A498 renal
MOLT-4 leukemia = tested on: MOLT-4 leukemia
HOP-92 NSCLC = tested on: HOP-92 NSCLC
HS 578T breast = tested on: HS 578T breast
SK-MEL-2 melanoma = tested on: SK-MEL-2 melanoma
EKVX NSCLC = tested on: EKVX NSCLC
KM12 colon = tested on: KM12 colon
SNB-19 CNS = tested on: SNB-19 CNS
HOP-62 NSCLC = tested on: HOP-62 NSCLC
CCRF-CEM leukemia = tested on: CCRF-CEM leukemia
HL-60(TB) leukemia = tested on: HL-60(TB) leukemia
M14 melanoma = tested on: M14 melanoma
SNB-75 CNS = tested on: SNB-75 CNS
MALME-3M melanoma = tested on: MALME-3M melanoma
BT-549 breast = tested on: BT-549 breast
SF-295 CNS = tested on: SF-295 CNS
RXF 393 renal = tested on: RXF 393 renal
T-47D breast = tested on: T-47D breast
OVCAR-8 ovarian = tested on: OVCAR-8 ovarian
LOX IMVI melanoma = tested on: LOX IMVI melanoma
DU-145 prostate = tested on: DU-145 prostate
SW-620 colon = tested on: SW-620 colon
HCT-116 colon = tested on: HCT-116 colon
HCC-2998 colon = tested on: HCC-2998 colon
RPMI-8226 leukemia = tested on: RPMI-8226 leukemia
MDA-MB-435 = tested on: MDA-MB-435
OVCAR-5 ovarian = tested on: OVCAR-5 ovarian
SF-539 CNS = tested on: SF-539 CNS
HT29 colon = tested on: HT29 colon
K-562 leukemia = tested on: K-562 leukemia
UO-31 renal = tested on: UO-31 renal
SK-MEL-28 melanoma = tested on: SK-MEL-28 melanoma
MDA-MB-468 breast = tested on: MDA-MB-468 breast
HCT-15 colon = tested on: HCT-15 colon
MCF7 breast = tested on: MCF7 breast
786-0 renal = tested on: 786-0 renal
CAKI-1 renal = tested on: CAKI-1 renal
ACHN renal = tested on: ACHN renal
PC-3 prostate = tested on: PC-3 prostate
OVCAR-3 ovarian = tested on: OVCAR-3 ovarian
SN12C renal = tested on: SN12C renal
NCI/ADR-RES ovarian = tested on: NCI/ADR-RES ovarian
UACC-257 melanoma = tested on: UACC-257 melanoma
NCI-H460 lung = tested on: NCI-H460 lung
SK-OV-3 ovarian = tested on: SK-OV-3 ovarian

SMILES: CCOc1ccccc1[C@H]1C(C(=O)c2ccc(Cl)cc2)C2(N[C@@H]1c1ccccc1)C(=O)Nc1ccc(Br)cc12 (stereo partly drawn)
- GI50 (SK-MEL-5 melanoma): 5.41 µM
- TGI (SK-MEL-5 melanoma): 10.8 µM
- GI50 (NCI-H522 lung): 4.41 µM
- TGI (NCI-H522 lung): 13.4 µM
- GI50 (U251 CNS): 5.72 µM
- TGI (U251 CNS): 13.9 µM
- GI50 (SR leukemia): 5.17 µM
- TGI (SR leukemia): 16.3 µM
- GI50 (SF-268 CNS): 6.2 µM
- TGI (SF-268 CNS): 24.4 µM
- GI50 (NCI-H23 lung): 5.43 µM
- TGI (NCI-H23 lung): 13.8 µM
- GI50 (IGROV1 ovarian): 4.88 µM
- TGI (IGROV1 ovarian): 21.2 µM
- GI50 (MDA-MB-231 breast): 4.04 µM
- TGI (MDA-MB-231 breast): 8.87 µM
- GI50 (UACC-62 melanoma): 3.45 µM
- TGI (UACC-62 melanoma): 7.98 µM
- GI50 (COLO 205 colon): 5.35 µM
- TGI (COLO 205 colon): 10.6 µM
- GI50 (NCI-H226 lung): 4.32 µM
- TGI (NCI-H226 lung): 10.6 µM
- GI50 (A549 NSCLC): 6.58 µM
- TGI (A549 NSCLC): > 34.5 µM
- GI50 (OVCAR-4 ovarian): 8.09 µM
- TGI (OVCAR-4 ovarian): > 34.5 µM
- GI50 (TK-10 renal): 8.22 µM
- TGI (TK-10 renal): 28.5 µM
- GI50 (A498 renal): 4.45 µM
- TGI (A498 renal): 13.7 µM
- GI50 (MOLT-4 leukemia): 4.46 µM
- TGI (MOLT-4 leukemia): 19.8 µM
- GI50 (HOP-92 NSCLC): 5.42 µM
- TGI (HOP-92 NSCLC): 14.6 µM
- GI50 (HS 578T breast): 4.77 µM
- TGI (HS 578T breast): 15.2 µM
- GI50 (SK-MEL-2 melanoma): 5.59 µM
- TGI (SK-MEL-2 melanoma): 12.4 µM
- GI50 (EKVX NSCLC): 7.9 µM
- TGI (EKVX NSCLC): > 34.5 µM
- GI50 (KM12 colon): 6 µM
- TGI (KM12 colon): 20.4 µM
- GI50 (SNB-19 CNS): 9.14 µM
- TGI (SNB-19 CNS): > 34.5 µM
- GI50 (HOP-62 NSCLC): 5.62 µM
- TGI (HOP-62 NSCLC): 13.5 µM
- GI50 (CCRF-CEM leukemia): 22.8 µM
- TGI (CCRF-CEM leukemia): > 34.5 µM
- GI50 (HL-60(TB) leukemia): 4.77 µM
- TGI (HL-60(TB) leukemia): 16.3 µM
- GI50 (M14 melanoma): 5.55 µM
- TGI (M14 melanoma): 14.5 µM
- GI50 (SNB-75 CNS): 4.2 µM
- TGI (SNB-75 CNS): 25 µM
- GI50 (MALME-3M melanoma): 5.7 µM
- TGI (MALME-3M melanoma): 12.1 µM
- GI50 (BT-549 breast): 5.3 µM
- TGI (BT-549 breast): 10.8 µM
- GI50 (SF-295 CNS): 5.79 µM
- TGI (SF-295 CNS): 21.6 µM
- GI50 (RXF 393 renal): 3.8 µM
- TGI (RXF 393 renal): 9.29 µM
- GI50 (T-47D breast): 4.05 µM
- TGI (T-47D breast): > 34.5 µM
- GI50 (OVCAR-8 ovarian): 6.06 µM
- TGI (OVCAR-8 ovarian): 19.3 µM
- GI50 (LOX IMVI melanoma): 4.17 µM
- TGI (LOX IMVI melanoma): 8.44 µM
- GI50 (DU-145 prostate): 8.88 µM
- TGI (DU-145 prostate): 32.2 µM
- GI50 (SW-620 colon): 6.55 µM
- TGI (SW-620 colon): 19 µM
- GI50 (HCT-116 colon): 4.76 µM
- TGI (HCT-116 colon): 11 µM
- GI50 (HCC-2998 colon): 4.88 µM
- TGI (HCC-2998 colon): 13 µM
- GI50 (RPMI-8226 leukemia): 6.69 µM
- TGI (RPMI-8226 leukemia): > 34.5 µM
- GI50 (MDA-MB-435): 5.55 µM
- TGI (MDA-MB-435): 12.7 µM
- GI50 (OVCAR-5 ovarian): 7 µM
- TGI (OVCAR-5 ovarian): 24.5 µM
- GI50 (SF-539 CNS): 7.93 µM
- TGI (SF-539 CNS): 20.2 µM
- GI50 (HT29 colon): 4.46 µM
- TGI (HT29 colon): 10.1 µM
- GI50 (K-562 leukemia): 7.41 µM
- TGI (K-562 leukemia): > 34.5 µM
- GI50 (UO-31 renal): 4.99 µM
- TGI (UO-31 renal): 20.8 µM
- GI50 (SK-MEL-28 melanoma): 6.28 µM
- TGI (SK-MEL-28 melanoma): 15.7 µM
- GI50 (MDA-MB-468 breast): 3.46 µM
- TGI (MDA-MB-468 breast): 12.6 µM
- GI50 (HCT-15 colon): 7.51 µM
- TGI (HCT-15 colon): 33.3 µM
- GI50 (MCF7 breast): 6.45 µM
- TGI (MCF7 breast): 29.9 µM
- GI50 (786-0 renal): 5.76 µM
- TGI (786-0 renal): 17.6 µM
- GI50 (CAKI-1 renal): 2.92 µM
- TGI (CAKI-1 renal): > 34.5 µM
- GI50 (ACHN renal): 7.25 µM
- TGI (ACHN renal): > 34.5 µM
- GI50 (PC-3 prostate): 3.6 µM
- TGI (PC-3 prostate): > 34.5 µM
- GI50 (OVCAR-3 ovarian): 5.07 µM
- TGI (OVCAR-3 ovarian): 12.8 µM
- GI50 (SN12C renal): 4.46 µM
- TGI (SN12C renal): 9.03 µM
- GI50 (NCI/ADR-RES ovarian): 5.25 µM
- TGI (NCI/ADR-RES ovarian): 13 µM
- GI50 (UACC-257 melanoma): 5.86 µM
- TGI (UACC-257 melanoma): 17.6 µM
- GI50 (NCI-H460 lung): 5.11 µM
- TGI (NCI-H460 lung): 10.8 µM
- GI50 (SK-OV-3 ovarian): 9.66 µM
- TGI (SK-OV-3 ovarian): > 34.5 µM
